The values that follow come from US11453657B2 (GlaxoSmithKline Intellectual Property Development Limited, priority 2018, dated 2022).

Structures can show the parent of a compound that is named as a salt. Where two headings read alike, the source gives them in different places.

The test system of this assay is P. falciparum infected erythrocytes. The assay is described as follows: P. falciparum growth inhibition assay ([3H]hypoxanthine incorporation). The assay is classed as cell-based, Plasmodium falciparum. On the procedure:
P. falciparum Growth Inhibition Assay.
The sensitivity of P. falciparum infected erythrocytes to the compound was determined in duplicate using the [3H]hypoxanthine incorporation method with an inoculum of 0.5% parasitemia (ring stage) and 2% hematocrit. The parasites were grown in RPMI 1640, 25 mM HEPES and supplemented with 5% Albumax. Plates are incubated at 37° C., 5% CO2, 5% O2, 90% N2. After 24 h of incubation, [3H]hypoxanthine is added and plates are incubated for another 24 h. After that period, plates are harvested on a glass fiber filter using a TOMTEC Cell harvester 96. Filters are dried and melt on scintillator sheets and the bound radioactivity is quantified by use of a Wallac Microbeta Trilux (Model 1450 LS—Perkin Elmer). IC50s are determined using Grafit 7 program (Grafit program; Erithacus Software, Horley, Surrey, United Kingdom).
Each example compound was tested generally in accordance with the above-mentioned assay and the PfIC50 value for each compound is reported in the Table below and according to the following: […]

[1] abbreviates: Plasmodium falciparum, Erythrocyte, [3H]hypoxanthine incorporation, 0.5% parasitemia, 2% hematocrit, 48 h, read-out: PfIC50 Media.
The mark [2] stands for this setting: Plasmodium falciparum, Erythrocyte, read-out: average PfIC50.
The mark [3] stands for this setting: [3H]hypoxanthine incorporation, 0.5% parasitemia, 2% hematocrit, 48 h, read-out: PfIC50 Media.

Consider `O=C(c1ccc(OC[C@H](O)Cn2cnnn2)cc1F)N1CC[C@H](c2ccc(Cl)cc2)C1` [Example 33, ((R)-3-(4-chlorophenyl)pyrrolidin-1-yl) (2-fluoro-4-((R)-2-hydroxy-3-(1H-tetrazol-1-yl)propoxy)phenyl)methanone], for which the IC50 under setting [1] lay in the range of 0.1 to 0.5 µM.

In the case of `O=C(c1ccc(OC[C@H](O)Cn2ncnn2)cc1F)N1CC[C@H](c2ccc(F)cc2)C1` [Example 27, (2-fluoro-4-((R)-2-hydroxy-3-(2H-tetrazol-2-yl)propoxy)phenyl)((R)-3-(4-fluorophenyl)pyrrolidin-1-yl)methanone], the IC50 by setting is: under setting [1], less than 0.1 µM; under setting [2], no more than 0.05 µM. As to `N[C@@H](COc1ccc(C(=O)N2CC[C@H](c3ccc(F)cc3)C2)c(F)c1)Cn1ncnn1` [Example 56, (4-((R)-2-amino-3-(2H-tetrazol-2-yl)propoxy)-2-fluorophenyl)((R)-3-(4-fluorophenyl)pyrrolidin-1-yl)methanone, Hydrochloride], the IC50 under setting [1] was 0.1 to 0.5 µM. Consider `O=C(c1ccc(OC[C@H](O)Cn2ncnn2)cc1)N1CC[C@@H](c2ccc(F)cc2)C1` [Example 13, ((S)-3-(4-Fluorophenyl)pyrrolidin-1-yl)(4-((R)-2-hydroxy-3-(2H-tetrazol-2-yl)propoxy)phenyl)methanone], for which the IC50 was less than 0.1 µM under setting [1] and 0.054 µM under setting [2]. Take `N#Cc1nnn(C[C@@H](O)COc2ccc(C(=O)N3CC[C@H](c4ccc(F)cc4)C3)cc2)n1` [Example 39, 2-((R)-3-(4-((R)-3-(4-Fluorophenyl)pyrrolidine-1-carbonyl)phenoxy)-2-hydroxypropyl)-2H-tetrazole-5-carbonitrile]: the IC50 under setting [1] was 0.1 to 0.5 µM. Turning to `N[C@@H](COc1ccc(C(=O)N2CC[C@H](c3ccc(F)cc3)C2)cc1)Cn1ncnn1` [Example 45, (4-((R)-2-Amino-3-(2H-tetrazol-2-yl)propoxy)phenyl)((R)-3-(4-fluorophenyl)pyrrolidin-1-yl)methanone], the IC50 is less than 0.1 µM under setting [1]; less than 0.1 µM (Plasmodium falciparum, Erythrocyte, hydrochloride salt of the example, same assay, read-out: PfIC50 Media (uM), (HCl)); 0.03 µM (Plasmodium falciparum, Erythrocyte, hydrochloride salt, read-out: average PfIC50 of the hydrochloride salt); 0.018 µM under setting [2]. Regarding `Cn1nnc(C[C@@H](O)COc2ccc(C(=O)N3CC[C@H](c4ccc(F)cc4)C3)cc2)n1` [Example 23, ((R)-3-(4-fluorophenyl)pyrrolidin-1-yl)(4-((R)-2-hydroxy-3-(2-methyl-2H-tetrazol-5-yl)propoxy)phenyl)methanone], the IC50 under setting [1] was less than 0.1 µM. For `CC(O)(COc1ccc(C(=O)N2CC[C@H](c3ccc(F)cc3)C2)cc1)Cn1ncnn1` (stereo partly drawn) [Example 9b, ((R)-3-(4-Fluorophenyl)pyrrolidin-1-yl)(4-(2-hydroxy-2-methyl-3-(2H-tetrazol-2-yl)propoxy)phenyl)methanone], the IC50 under setting [3] lay in the range of 0.1 to 0.5 µM.

For the molecule `O=C(c1ccc(OC[C@H](O)Cn2cncn2)cc1)N1CC[C@H](c2ccc(F)cc2)C1` [Example 15, ((R)-3-(4-fluorophenyl)pyrrolidin-1-yl)(4-((R)-2-hydroxy-3-(1H-1,2,4-triazol-1-yl)propoxy)phenyl)methanone], the IC50 is less than 0.1 µM under setting [1] and no more than 0.05 µM under setting [2]. With `CC(O)(COc1ccc(C(=O)N2CC[C@H](c3ccc(F)cc3)C2)cc1)Cn1cnnn1` (single isomer, unassigned) [Example 10a], under setting [1], the IC50 lay in the range of 1 to 5 µM. On to `Cn1nnnc1C[C@@H](O)COc1ccc(C(=O)N2CC[C@H](c3ccc(F)cc3)C2)cc1` [Example 24, ((R)-3-(4-fluorophenyl)pyrrolidin-1-yl)(4-((R)-2-hydroxy-3-(1-methyl-1H-tetrazol-5-yl)propoxy)phenyl)methanone], for which the IC50 under setting [1] lay in the range of 0.1 to 0.5 µM. For the molecule `O=C(c1ccc(OC[C@H](O)Cn2ncnn2)cc1)N1CCC(c2cccc(F)c2)C1` (single isomer, unassigned) [Example 41b], the IC50 under setting [1] lay within 0.1 to 0.5 µM. With `CC(COc1ccc(C(=O)N2CC[C@H](c3ccc(F)cc3)C2)cc1)Cn1cnnn1` (single isomer, unassigned) [Example 1b], the IC50 under setting [3] is less than 0.1 µM. As to `O=C(c1ccc(OCC(F)Cn2cnnn2)cc1)N1CC[C@H](c2ccc(F)cc2)C1` (single isomer, unassigned) [Example 3b], the IC50 reads like this: under setting [2], no more than 0.05 µM; under setting [3], less than 0.1 µM. In the case of `N[C@@H](COc1ccc(C(=O)N2CC[C@H](c3ccc(F)cc3)C2)cc1)Cn1cncn1` [Example 52, (4-((R)-2-amino-3-(1H-1,2,4-triazol-1-yl)propoxy)phenyl)((R)-3-(4-fluorophenyl)pyrrolidin-1-yl)methanone, Hydrochloride], the IC50 under setting [1] fell in the range of 0.1 to 0.5 µM. For the molecule `O=C(c1ccc(OC[C@H](O)Cn2ccnn2)cc1)N1CC[C@H](c2ccc(Cl)cc2)C1` [Example 32, ((R)-3-(4-chlorophenyl)pyrrolidin-1-yl)(4-((R)-2-hydroxy-3-(1H-1,2,3-triazol-1-yl)propoxy)phenyl)methanone], the IC50 is, setting by setting: under setting [1], less than 0.1 µM; under setting [2], no more than 0.05 µM.

With `O=C(c1ccc(OCC(F)(F)Cn2cnnn2)cc1)N1CC[C@H](c2ccc(F)cc2)C1` [Example 4, (R)-(4-(2,2-Difluoro-3-(1H-tetrazol-1-yl)propoxy)phenyl)(3-(4-fluorophenyl)-pyrrolidin-1-yl)methanone], the IC50 is, setting by setting: under setting [1], less than 0.1 µM; under setting [2], no more than 0.05 µM. Regarding `O=C(c1ccc(OC[C@H](O)Cn2ncnn2)cc1F)N1CC[C@H](c2ccc(Cl)cc2)C1` [Example 34, ((R)-3-(4-chlorophenyl)pyrrolidin-1-yl) (2-fluoro-4-((R)-2-hydroxy-3-(2H-tetrazol-2-yl)propoxy)phenyl)methanone], the IC50 under setting [1] was less than 0.1 µM. `N[C@@H](COc1ccc(C(=O)N2CC[C@H](c3ccc(Cl)cc3)C2)cc1)Cn1ncnn1` [Example 48, (4-((R)-2-amino-3-(2H-tetrazol-2-yl)propoxy)phenyl)((R)-3-(4-chlorophenyl)pyrrolidin-1-yl)methanone]: the IC50 was less than 0.1 µM under setting [1] and no more than 0.05 µM under setting [2]. Turning to `Cn1ccc(CC(O)COc2ccc(C(=O)N3CC[C@H](c4ccc(F)cc4)C3)cc2)n1` (single isomer, unassigned) [Example 36a], the IC50 under setting [1] was less than 0.1 µM. Still for that read-out and setting: the value for `O=C(c1ccc(OC[C@@H](O)Cn2cnnn2)cc1)N1CC[C@H](c2ccc(F)cc2)C1` [Example 6, ((R)-3-(4-Fluorophenyl)pyrrolidin-1-yl)(4-((S)-2-hydroxy-3-(1H-tetrazol-1-yl)propoxy)phenyl)methanone] was 0.1 to 0.5 µM. Turning to `N#Cc1ccc(C2CCN(C(=O)c3ccc(OC[C@H](O)Cn4ncnn4)cc3)C2)cc1` (single isomer, unassigned) [Example 43a], the IC50 under setting [3] fell in the range of 0.1 to 0.5 µM. Consider `O=C(c1ccc(OC[C@H](O)Cn2ccnn2)cc1)N1CC[C@H](c2ccc(F)cc2)C1` [Example 17, ((R)-3-(4-fluorophenyl)pyrrolidin-1-yl)(4-((R)-2-hydroxy-3-(1H-1,2,3-triazol-1-yl)propoxy)phenyl)methanone], for which the IC50 is, setting by setting: under setting [1], less than 0.1 µM; under setting [2], no more than 0.05 µM. On to `Cc1nnn(C[C@@H](O)COc2ccc(C(=O)N3CC[C@H](c4ccc(F)cc4)C3)cc2)n1` [Example 22, ((R)-3-(4-fluorophenyl)pyrrolidin-1-yl)(4-((R)-2-hydroxy-3-(5-methyl-2H-tetrazol-2-yl)propoxy)phenyl)methanone], for which, under setting [1], the IC50 is less than 0.1 µM. On the same count and under the same terms, with `Cc1nnnn1C[C@@H](O)COc1ccc(C(=O)N2CC[C@H](c3ccc(F)cc3)C2)cc1` [Example 21, ((R)-3-(4-fluorophenyl)pyrrolidin-1-yl)(4-((R)-2-hydroxy-3-(5-methyl-1H-tetrazol-1-yl)propoxy)phenyl)methanone] the figure was 0.5 to 1 µM.
